These are literature values, as cited in patent US9884022B2, “Controlled release pharmaceutical compositions of tapentadol” (LUPIN LIMITED, priority 2010, dated 2018).

Structures are written as SMILES.

The conditions of this data set: background statement on immediate release compositions.

On to `CCC(c1cccc(O)c1)C(C)CN(C)C` (stereo not shown) [tapentadol, 3-(3-dimethylamino-1-ethyl-2-methyl-propyl) phenol], for which the half life is 4 h.
